From ChEMBL document CHEMBL1201862, “PubChem BioAssay data set” (2004)
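Tested at 5 concentrations; 48 h exposure; 96-well plates; endpoints linearly interpolated, else capped at highest concentration. GI50: concentration for 50% inhibition of growth.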 Activity calls are given as the source filed them. Cut-off read from the data, not from the text of the source: active = GI50 up to about 1.1 µM and inactive = higher.

Experiments:
Test in all cases: DTP human tumour cell line panel, 48 h
U-251 = test system: U-251
NCI-H23 = test system: NCI-H23
RXF 393 = test system: RXF 393
NCI-H460 = test system: NCI-H460
SF-539 = test system: SF-539
NCI-H226 = test system: NCI-H226
HL-60 = test system: HL-60
EKVX = test system: EKVX
OVCAR-5 = test system: OVCAR-5
HCT-15 = test system: HCT-15
SF-268 = test system: SF-268
CAKI-1 = test system: CAKI-1
HOP-92 = test system: HOP-92
KM12 = test system: KM12
HOP-62 = test system: HOP-62
MOLT-4 = test system: MOLT-4
SK-MEL-28 = test system: SK-MEL-28
UACC-62 = test system: UACC-62
SF-295 = test system: SF-295
OVCAR-4 = test system: OVCAR-4

## C=CCn1c(=O)c(Br)nn(CCOCP(=O)(OCC)OCC)c1=O
U-251
  GI50: > 100 µM (inactive)
NCI-H23
  GI50: > 100 µM (inactive)
RXF 393
  GI50: > 100 µM (inactive)
NCI-H460
  GI50: > 100 µM (inactive)
SF-539
  GI50: > 100 µM (inactive)
NCI-H226
  GI50: > 100 µM (inactive)
HL-60
  GI50: > 100 µM (inactive)
EKVX
  GI50: > 100 µM (inactive)
OVCAR-5
  GI50: > 100 µM (inactive)
HCT-15
  GI50: > 100 µM
SF-268
  GI50: > 100 µM (inactive)
CAKI-1
  GI50: > 100 µM (inactive)
HOP-92
  GI50: > 100 µM (inactive)
KM12
  GI50: > 100 µM (inactive)
HOP-62
  GI50: > 100 µM (inactive)
MOLT-4
  GI50: > 100 µM (inactive)
SK-MEL-28
  GI50: > 100 µM (inactive)

## O=C(N/N=C\c1cccc2ccccc12)Nc1ccccc1
U-251
  GI50: > 100 µM (inactive)
NCI-H23
  GI50: > 100 µM (inactive)
RXF 393
  GI50: > 100 µM (inactive)
NCI-H460
  GI50: > 100 µM (inactive)
UACC-62
  GI50: > 100 µM (inactive)
SF-295
  GI50: > 100 µM (inactive)
NCI-H226
  GI50: > 100 µM (inactive)
HL-60
  GI50: > 10 µM (inactive)
OVCAR-5
  GI50: > 100 µM (inactive)
HCT-15
  GI50: > 100 µM
CAKI-1
  GI50: > 100 µM (inactive)
HOP-92
  GI50: > 100 µM (inactive)
KM12
  GI50: > 100 µM (inactive)
HOP-62
  GI50: > 100 µM (inactive)
OVCAR-4
  GI50: > 100 µM (inactive)
MOLT-4
  GI50: > 100 µM (inactive)
SK-MEL-28
  GI50: > 100 µM (inactive)

## CN(C)[C@@H]1C(O)=C(C(=O)NCN2CCN(C(=N)NC(=N)N)CC2)C(=O)[C@@]2(O)C(O)=C3C(=O)c4c(O)cccc4[C@@](C)(O)[C@H]3C[C@@H]12
U-251
  GI50: 0.269 µM (active)
NCI-H23
  GI50: 0.136 µM (active)
RXF 393
  GI50: 0.12 µM (active)
NCI-H460
  GI50: 0.324 µM (active)
UACC-62
  GI50: 0.172 µM (active)
SF-295
  GI50: 0.506 µM (active)
SF-539
  GI50: 0.216 µM (active)
HL-60
  GI50: 0.0236 µM (active)
EKVX
  GI50: 0.286 µM (active)
OVCAR-5
  GI50: 0.282 µM (active)
HCT-15
  GI50: 0.0721 µM
SF-268
  GI50: 0.518 µM (active)
CAKI-1
  GI50: 0.274 µM (active)
HOP-92
  GI50: 0.279 µM (active)
KM12
  GI50: 0.368 µM (active)
HOP-62
  GI50: 1.14 µM (inactive)
MOLT-4
  GI50: 0.0597 µM (active)
SK-MEL-28
  GI50: 0.238 µM (active)

## Cc1ccc(S(=O)(=O)NCCCSCCSCCCN)cc1
U-251
  GI50: > 100 µM (inactive)
NCI-H23
  GI50: > 100 µM (inactive)
RXF 393
  GI50: > 100 µM (inactive)
NCI-H460
  GI50: > 100 µM (inactive)
SF-295
  GI50: > 100 µM (inactive)
NCI-H226
  GI50: > 100 µM (inactive)
HL-60
  GI50: > 100 µM (inactive)
HCT-15
  GI50: > 100 µM
SF-268
  GI50: > 100 µM (inactive)
HOP-92
  GI50: > 100 µM (inactive)
KM12
  GI50: > 100 µM (inactive)
OVCAR-4
  GI50: > 100 µM (inactive)
MOLT-4
  GI50: > 100 µM (inactive)
SK-MEL-28
  GI50: > 100 µM (inactive)

## O=C1CCC(c2ccc(Cl)cc2)=NN1c1nsc2ccccc12
U-251
  GI50: 34.1 µM (inactive)
NCI-H23
  GI50: 26.7 µM (inactive)
RXF 393
  GI50: 11.5 µM (inactive)
NCI-H460
  GI50: 29.6 µM (inactive)
UACC-62
  GI50: 43.1 µM (inactive)
SF-539
  GI50: 48.4 µM (inactive)
HL-60
  GI50: 20 µM (inactive)
EKVX
  GI50: 23.3 µM (inactive)
OVCAR-5
  GI50: 51.2 µM (inactive)
HCT-15
  GI50: > 10 µM
SF-268
  GI50: 38.9 µM (inactive)
HOP-92
  GI50: 21.5 µM (inactive)
KM12
  GI50: 29.2 µM (inactive)
HOP-62
  GI50: 39.2 µM (inactive)
OVCAR-4
  GI50: 36.1 µM (inactive)
MOLT-4
  GI50: 19.7 µM (inactive)
SK-MEL-28
  GI50: 31.6 µM (inactive)

## CCOC(=O)c1c(-c2ccc(Cl)cc2)c(C#N)c(=S)n(C2OC(CO)C(O)C(O)C2O)c1-c1ccccc1 (stereo not given)
U-251
  GI50: 17 µM (inactive)
NCI-H23
  GI50: 30.3 µM (inactive)
RXF 393
  GI50: 23 µM (inactive)
NCI-H460
  GI50: 26.9 µM (inactive)
UACC-62
  GI50: 18.7 µM (inactive)
SF-295
  GI50: 20.4 µM (inactive)
SF-539
  GI50: 19.5 µM (inactive)
HL-60
  GI50: > 10 µM (inactive)
OVCAR-5
  GI50: 21.8 µM (inactive)
HCT-15
  GI50: 29.9 µM
SF-268
  GI50: 28.1 µM (inactive)
CAKI-1
  GI50: 29.8 µM (inactive)
HOP-92
  GI50: 18.9 µM (inactive)
KM12
  GI50: 34.5 µM (inactive)
HOP-62
  GI50: 20.3 µM (inactive)
OVCAR-4
  GI50: 33.5 µM (inactive)
MOLT-4
  GI50: 13.5 µM (inactive)
SK-MEL-28
  GI50: 17.3 µM (inactive)

## Nc1cc[nH]c(=O)n1
U-251
  GI50: > 100 µM (inactive)
RXF 393
  GI50: > 100 µM (inactive)
NCI-H460
  GI50: > 100 µM (inactive)
UACC-62
  GI50: > 100 µM (inactive)
SF-295
  GI50: > 100 µM (inactive)
SF-539
  GI50: > 100 µM (inactive)
NCI-H226
  GI50: > 100 µM (inactive)
HL-60
  GI50: > 100 µM (inactive)
EKVX
  GI50: > 100 µM (inactive)
OVCAR-5
  GI50: > 100 µM (inactive)
HCT-15
  GI50: > 100 µM
SF-268
  GI50: > 100 µM (inactive)
CAKI-1
  GI50: > 100 µM (inactive)
HOP-92
  GI50: > 100 µM (inactive)
KM12
  GI50: > 100 µM (inactive)
HOP-62
  GI50: > 100 µM (inactive)
OVCAR-4
  GI50: > 100 µM (inactive)
SK-MEL-28
  GI50: > 100 µM (inactive)

## CCCOC1OC(CS(=O)(=O)O)C(OC(C)=O)C(OC(C)=O)C1OC(C)=O (stereo not given)
U-251
  GI50: > 100 µM (inactive)
NCI-H23
  GI50: > 100 µM (inactive)
RXF 393
  GI50: > 100 µM (inactive)
NCI-H460
  GI50: > 100 µM (inactive)
UACC-62
  GI50: > 100 µM (inactive)
SF-295
  GI50: > 100 µM (inactive)
NCI-H226
  GI50: > 100 µM (inactive)
HL-60
  GI50: > 100 µM (inactive)
OVCAR-5
  GI50: > 100 µM (inactive)
HCT-15
  GI50: > 100 µM
CAKI-1
  GI50: > 100 µM (inactive)
HOP-92
  GI50: > 100 µM (inactive)
KM12
  GI50: > 100 µM (inactive)
HOP-62
  GI50: > 100 µM (inactive)
OVCAR-4
  GI50: > 100 µM (inactive)
MOLT-4
  GI50: > 100 µM (inactive)
SK-MEL-28
  GI50: > 100 µM (inactive)

## Cc1c2cc[n+](C)cc2c(C)c2c1[nH]c1ccccc12
U-251
  GI50: 0.379 µM (active)
NCI-H23
  GI50: 0.714 µM (active)
RXF 393
  GI50: 1.75 µM (inactive)
NCI-H460
  GI50: 2.06 µM (inactive)
UACC-62
  GI50: 4.5 µM (inactive)
SF-295
  GI50: 0.233 µM (active)
SF-539
  GI50: 0.468 µM (active)
NCI-H226
  GI50: 0.34 µM (active)
HL-60
  GI50: 9.62 µM (inactive)
EKVX
  GI50: 0.718 µM (active)
OVCAR-5
  GI50: 9.84 µM (inactive)
SF-268
  GI50: 0.408 µM (active)
CAKI-1
  GI50: 4.39 µM (inactive)
HOP-92
  GI50: 1.33 µM (inactive)
KM12
  GI50: 0.402 µM (active)
HOP-62
  GI50: 0.441 µM (active)
OVCAR-4
  GI50: 2.77 µM (inactive)
MOLT-4
  GI50: 0.912 µM (active)
SK-MEL-28
  GI50: 1.34 µM (inactive)

## CCCCCCc1ccc(O)cc1O [HEXYLRESORCINOL]
U-251
  GI50: 40.4 µM (inactive)
NCI-H23
  GI50: 47.3 µM (inactive)
RXF 393
  GI50: > 75.2 µM (inactive)
NCI-H460
  GI50: 58.3 µM (inactive)
UACC-62
  GI50: 34.4 µM (inactive)
SF-295
  GI50: 46.8 µM (inactive)
SF-539
  GI50: > 80.7 µM (inactive)
NCI-H226
  GI50: 57.8 µM (inactive)
HL-60
  GI50: 30.8 µM (inactive)
EKVX
  GI50: > 64.7 µM (inactive)
OVCAR-5
  GI50: > 65.6 µM (inactive)
HCT-15
  GI50: 59.8 µM
SF-268
  GI50: 87.3 µM (inactive)
HOP-92
  GI50: 30.6 µM (inactive)
KM12
  GI50: 62.2 µM (inactive)
HOP-62
  GI50: 57.8 µM (inactive)
OVCAR-4
  GI50: 48.5 µM (inactive)
MOLT-4
  GI50: 22.9 µM (inactive)
SK-MEL-28
  GI50: > 71.9 µM (inactive)

## O=C1N[C@@H]2C(=C[C@H](O)[C@@H](O)[C@H]2O)c2cc3c(c(O)c21)OCO3 [NARCICLASINE]
U-251
  GI50: 0.045 µM (active)
NCI-H23
  GI50: 0.045 µM (active)
NCI-H460
  GI50: 0.045 µM (active)
UACC-62
  GI50: 0.045 µM (active)
SF-295
  GI50: 0.0634 µM (active)
SF-539
  GI50: 0.045 µM (active)
NCI-H226
  GI50: 0.045 µM (active)
HL-60
  GI50: 0.0646 µM (active)
EKVX
  GI50: 0.045 µM (active)
OVCAR-5
  GI50: 0.0632 µM (active)
HCT-15
  GI50: 0.045 µM
SF-268
  GI50: 0.045 µM (active)
CAKI-1
  GI50: 0.045 µM (active)
HOP-92
  GI50: 0.045 µM (active)
KM12
  GI50: 0.045 µM (active)
HOP-62
  GI50: 0.045 µM (active)
OVCAR-4
  GI50: 0.142 µM (active)
MOLT-4
  GI50: 0.045 µM (active)
SK-MEL-28
  GI50: 0.045 µM (active)

## CC(=O)CC(=O)CCC(=O)O [SUCCINYLACETONE]
U-251
  GI50: > 100 µM (inactive)
NCI-H23
  GI50: > 100 µM (inactive)
RXF 393
  GI50: > 100 µM (inactive)
NCI-H460
  GI50: > 100 µM (inactive)
SF-295
  GI50: > 100 µM (inactive)
SF-539
  GI50: > 100 µM (inactive)
NCI-H226
  GI50: > 100 µM (inactive)
HL-60
  GI50: > 100 µM (inactive)
EKVX
  GI50: > 100 µM (inactive)
OVCAR-5
  GI50: > 100 µM (inactive)
HCT-15
  GI50: > 100 µM
SF-268
  GI50: > 100 µM (inactive)
CAKI-1
  GI50: > 100 µM (inactive)
HOP-92
  GI50: < 0.01 µM (active)
KM12
  GI50: 47.4 µM (inactive)
MOLT-4
  GI50: 57.3 µM (inactive)
SK-MEL-28
  GI50: > 100 µM (inactive)
